Results taken from the supplement of paper PMC10307832.

What was measured:
Assay in all cases: relative viability (nuclei count vs DMSO), 5 days (fraction); higher = more cells survive
[1] = compound: C#Cc1cccc(Nc2ncnc3cc(OCCOC)c(OCCOC)cc23)c1 [Erlotinib] + NC(=O)Nc1cc(-c2cccc(F)c2)sc1C(=O)N[C@H]1CCCNC1 [AZD7762] (partner 0.2 µM)
Outline: (§1)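 Cells from lung cancer lines were seeded into 1536-well plates and, one day later, dosed by pin tool. Treatments were either a single drug or a fixed dose of an anchor drug with five library-drug doses (not always all listed) in √10 steps. After 5 days, nuclei were stained in a one-step fixation (final 0.05% Triton X-100, 1% formaldehyde, 1 ug/ml Hoechst) and counted on 4× images, and relative viability is the treated-to-vehicle nuclei ratio, as the median of duplicate plates.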

[2] = compound: O=C(Nc1c[nH]nc1-c1nc2ccc(CN3CCOCC3)cc2[nH]1)NC1CC1 [AT9283] + Cc1cc(Nc2cc(N3CCN(C)CC3)nc(Sc3ccc(NC(=O)C4CC4)cc3)n2)n[nH]1 [Tozasertib] (partner 0.1 µM)
Outline: as §1

[3] = compound: O=C(Nc1c[nH]nc1-c1nc2ccc(CN3CCOCC3)cc2[nH]1)NC1CC1 [AT9283] + Nc1nc2[nH]cc(CCc3ccc(C(=O)N[C@@H](CCC(=O)O)C(=O)O)cc3)c2c(=O)[nH]1 [Pemetrexed] (partner 0.2 µM)
Outline: as §1

[4] = compound: O=C(Nc1c[nH]nc1-c1nc2ccc(CN3CCOCC3)cc2[nH]1)NC1CC1 [AT9283] + O=C(CCCCCCC(=O)Nc1ccccc1)NO [Vorinostat] (partner 1 µM)
Outline: as §1

[5] = compound: O=C(Nc1c[nH]nc1-c1nc2ccc(CN3CCOCC3)cc2[nH]1)NC1CC1 [AT9283] + O=C(c1cc(Cc2n[nH]c(=O)c3ccccc23)ccc1F)N1CCN(C(=O)C2CC2)CC1 [Olaparib] (partner 8 µM)
Outline: as §1

Cell Line | relative viability ([1]; first compound 0.02 µM) | relative viability ([1]; first compound 0.2 µM) | relative viability ([1]; first compound 0.6325 µM) | relative viability ([1]; first compound 2 µM) | relative viability ([2]; first compound 0.003 µM) | relative viability ([2]; first compound 0.03 µM) | relative viability ([2]; first compound 0.09487 µM) | relative viability ([2]; first compound 0.3 µM) | relative viability ([3]; first compound 0.003 µM) | relative viability ([3]; first compound 0.03 µM) | relative viability ([3]; first compound 0.09487 µM) | relative viability ([3]; first compound 0.3 µM) | relative viability ([4]; first compound 0.003 µM) | relative viability ([4]; first compound 0.03 µM) | relative viability ([4]; first compound 0.09487 µM) | relative viability ([4]; first compound 0.3 µM) | relative viability ([5]; first compound 0.003 µM) | relative viability ([5]; first compound 0.03 µM) | relative viability ([5]; first compound 0.09487 µM) | relative viability ([5]; first compound 0.3 µM)
HCC-15 | 1.34 | 1.25 | 1.31 | 1.07 | 0.25 | 0.134 | 0.126 | 0.0965 | 0.223 | 0.208 | 0.143 | 0.159 | 0.873 | 0.426 | 0.165 | 0.166 | 0.691 | 0.574 | 0.192 | 0.183
HCC-78 | 0.5 | 0.55 | 0.524 | 0.369 | 0.501 | 0.354 | 0.267 | 0.291 | 0.905 | 0.896 | 0.924 | 0.919 | 0.384 | 0.385 | 0.258 | 0.229 | 0.909 | 0.599 | 0.273 | 0.249
NCI-H2170 | 0.862 | 0.737 | 0.54 | 0.35 | 0.748 | 0.276 | 0.164 | 0.157 | 0.464 | 0.234 | 0.2 | 0.132 | 0.765 | 0.514 | 0.272 | 0.13 | 0.613 | 0.385 | 0.14 | 0.146
NCI-H23 | 0.291 | 0.177 | 0.198 | 0.219 | 0.413 | 0.603 | 0.276 | 0.285 | 0.675 | 0.749 | 0.296 | 0.238 | 0.523 | 0.363 | 0.183 | 0.177 | 0.334 | 0.297 | 0.3 | 0.211
NCI-H838 | 0.895 | 0.784 | 0.987 | 0.896 | 0.274 | 0.271 | 0.216 | 0.24 | 0.227 | 0.21 | 0.182 | 0.153 | 0.68 | 0.221 | 0.194 | 0.24 | 0.745 | 0.323 | 0.183 | 0.164
NCI-H522 | 0.812 | 0.893 | 1.02 | 0.833 | 0.545 | 0.576 | 0.56 | 0.557 | 0.949 | 0.78 | 0.746 | 0.499 | 0.782 | 0.549 | 0.527 | 0.376 | 0.619 | 0.553 | 0.453 | 0.575
NCI-H1650 |  |  |  |  | 0.386 | 0.328 | 0.36 | 0.35 | 0.358 | 0.362 | 0.361 | 0.28 | 0.608 | 0.487 | 0.375 | 0.194 | 0.759 | 0.808 | 0.693 | 0.48
EMC-BAC-2 | 1.1 | 1.08 | 1.26 | 1.04 | 0.283 | 0.192 | 0.198 | 0.133 | 0.466 | 0.414 | 0.367 | 0.266 | 0.28 | 0.19 | 0.159 | 0.146 | 0.502 | 0.301 | 0.261 | 0.203
